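Assay format: 96-well plates, 48-hour exposure. Here, GI50 denotes the concentration required for 50% inhibition of growth. TGI denotes the concentration required for complete inhibition of growth.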
Experiments:
Experiment in all cases: NCI tumour cell line growth inhibition, 48 h
HCT-116 colon = system: HCT-116 colon
MCF7 breast = system: MCF7 breast
MDA-MB-435 = system: MDA-MB-435
TK-10 renal = system: TK-10 renal
KM12 colon = system: KM12 colon
A549 NSCLC = system: A549 NSCLC
ACHN renal = system: ACHN renal
EKVX NSCLC = system: EKVX NSCLC
SF-268 CNS = system: SF-268 CNS
CAKI-1 renal = system: CAKI-1 renal

SMILES: COC(=O)c1cc2oc(/C=C3\SC(=S)N(NC(C)=O)C3=O)cc2n1Cc1ccccc1
- GI50 (HCT-116 colon): 7.62 µM
- TGI (HCT-116 colon): 14.3 µM
- GI50 (MCF7 breast): 2.53 µM
- TGI (MCF7 breast): > 50 µM
- GI50 (MDA-MB-435): 1.1 µM
- TGI (MDA-MB-435): 4.02 µM
- GI50 (TK-10 renal): 6.14 µM
- TGI (TK-10 renal): 15.5 µM
- GI50 (KM12 colon): 2.95 µM
- TGI (KM12 colon): 12.8 µM
- GI50 (A549 NSCLC): 5.2 µM
- TGI (A549 NSCLC): 17.9 µM
- GI50 (ACHN renal): 3.68 µM
- TGI (ACHN renal): 10.5 µM
- GI50 (EKVX NSCLC): 3.08 µM
- TGI (EKVX NSCLC): 15.3 µM
- GI50 (SF-268 CNS): 4.16 µM
- TGI (SF-268 CNS): 27.6 µM
- GI50 (CAKI-1 renal): 2.42 µM
- TGI (CAKI-1 renal): 7.79 µM
